# Entries after “also recorded” stand apart in the source; their conditions may differ.
# Assays:
# [1] = tested on: Apoe−/− macrophage foam cells; assay: Capacity of HDL from treated mice to reduce macrophage cholesterol; assay type: cell-based, mouse; details: for efficiency of HDL at reducing cholesterol stores in Apoe−/− macrophage foam cells: HDL isolated from treated Ldlr−/− mice, 25 μg protein/ml, 24 h
# Procedure: FIGS. 7A-7G show the effects of 2-HOBA on MDA-HDL adducts and HDL function. (7A) The levels or MDA adducts were measured by ELISA in HDL isolated from Ldlr mice treated as described in FIG. 1. Data are presented as mean±SEM (N=8 pet group), *** p<0.001, One-way ANOVA with Bonferroni's post hoc test. (7B) Western blots of apoAl and MDA-apoAl in HDL isolated from plasma by immunoprecipitation using primary anti-apoAl antibody. Ldlf mice were treated as described In FIG. 1 and apoAl and MDA-apoAl from Ldlr mice consuming a chow diet are included f0t comparison. (7C) Quantitation using lmageJ software of the mean density ratio (arbitrary units) of MDA-apoAl to apoAl detected by Western blotting (7B). (7D The HDL was isolated from the plasma of Ld/r-mice consuming a western diet for 16 weeks and treated with 2-HOBA or 4-HOBA or vehicle. Cholesterol enriched macrophages were incubated for 24 h with HDL (25 μg protein/ml). and the % reduction in cellular cholesterol content measured. Data presented as mean±SEM. N=7 per group, *p<0.05.**p<0.01, One-way ANOVA with Bonferroni's post hoc test (7E) The MDA adducts were measured by ELISA in HDL isolated from control or FH subjects before and after LDL apheresis. N=7 or 8, ***p<0.001, One-way ANOVA with Bonferroni's post hoc test. (7F) The MDA-Lysyl crosslink content in HDL from control or FH subjects (n=6 per group), p=0.02, Mann-Whitney test (7G) The capacity of HDL from control or FH subjects pre and post LDL apheresis (n=7 per group) to reduce the cholesterol content of apoE macrophages.
# HDL was isolated from mouse plasma using HDL Purification Kit (Cell BioLabs, Inc.) following the manufacturer's protocol. Briefly, apoB containing lipoproteins and HDL were sequentially precipitated with dextran sulfate. The HDL was then resuspended and washed. After removing the dextran sulfate, the HDL was dialyzed against PBS. […] Cellular cholesterol was measured before and after incubation with HDL using an enzymatic cholesterol assay as described^61.
# MDA = assay: Plasma MDA content by TBARS assay; assay type: in vivo, mouse; details: Ldlr−/− mice, western diet 16 weeks; versus 4-HOBA or vehicle
# Procedure: FIG. 21A-D show the effects of 2-HOBA on plasma and LDL MDA adducts in hypercholesterolemic Ldlr^−/− mice. (20A) The MDA content in plasma from Ldlr^−/− mice consuming a Western diet for 16 weeks and treated with 2-HOBA, 4-HOBA, or vehicle was measured by TBARS Assay(*p<0.05, **p<0.01). (20B) The levels of MDA adducts were measured from LDL isolated from the Ldlr^−/− mice by ELISA. N=10 per group, ***p<0.001. (20C) LDL was isolated from control and FH subjects (n=6) pre and post LDL apheresis and the MDA adduct content was measured by ELISA. (20D) LDL was isolated from 2-HOBA, 4-HOBA, or vehicle treated hypercholesterolemic Ldlr^−/− mice. WT peritoneal macrophages were incubated for 24 hrs with the LDL and the cellular cholesterol content was measured as described in methods. (20A-D) One-way ANOVA with Bonferroni's post hoc test).
# MDA-protein adducts = assay: Proximal aortic lesion MDA adducts by immunofluorescence; assay type: in vivo, mouse; details: Ldlr−/− mice
# Description: The extent of atherosclerosis was examined both Oil-Red-O-stained cross-sections of the proximal aorta and by en face analysis^30. Briefly, cryosections of 10-micron thickness were cut from the region of the proximal aorta starting from the end of the aortic sinus and for 300 μm distally, according to the method of Paigen et al.^62. The Oil red-O staining of 15 serial sections from the root to ascending aortic region were used to quantify the Oil red-O-positive staining area per mouse. The mean from the 15 serial sections was applied for the aortic root atherosclerotic lesion size per mouse using the KS300 imaging system (Kontron Elektronik GmbH) as described^63, 64, 65. All other stains were done using sections that were 40 to 60 μm distal of the aortic sinus. For each mouse, 4 sections were stained and quantitation was done on the entire cross section of all 4 sections. For immunofluorescence staining, 5 μm cross-sections of the proximal aorta were fixed in cold acetone (Sigma), blocked in Background Buster (Innovex), incubated with indicated primary antibodies (MDA and CD68) at 4° C. for overnight. After incubation with fluorescent labeled secondary antibodies at 37 C for 1 hour, the nucleus was counterstained with Hoechst. Images were captured with a fluorescence microscope (Olympus IX81) and SlideBook 6 (Intelligent-Image) software and quantitated using ImageJ software (NIH)^66.
# aortic endothelial cells = assay: H2O2-induced apoptosis of endothelial cells (Annexin V); assay type: cell-based, mouse; details: 250 μM H2O2, 24 h, 500 μM compound; compared to vehicle or 4-HOBA
# Procedure: (6A and 6B) Mouse aortic endothelial cells (6A) or primary macrophages (6B) were incubated for 24 h with 250 μM H2O2 alone or with either 4-HOBA or 2-HOBA (500 μM). Apoptotic cells were then detected by Annexin V staining and flow cytometry. (6C to 6H) The mRNA levels of IL-1β, IL-6, and TNF-α were analyzed by real time PCR in the peritoneal macrophages incubated for 24 h with either oxidized LDL (6C-6E) or 250 μM H2O2 (6F-6H) alone or with either 4-HOBA or 2-HOBA (500 μM). (6A to 6H) Data are presented as mean±SEM from three independent experiments, ***p<0.001, One-way ANOVA with Bonferroni's post hoc test.
# Peritoneal macrophages were isolated from mice 72 hours post injection of 3% thioglycollate and maintained in DMEM plus 10% fetal bovine serum (FBS, Gibco) as previously described^30. Human aortic endothelial cells (HAECs) were obtained from Lonza and maintained in endothelial cell basal medium-2 plus 1% FBS and essential growth factors (Lonza).
# Cell apoptosis was induced as indicated and detected by fluorescent labeled Annexin V staining and quantitated by either Flow Cytometry (BD 5 LSRII) or counting Annexin V positive cells in images captured under a fluorescent microscope. The apoptotic cells in atherosclerotic lesions were measured by TUNEL staining of cross-sections of atherosclerotic proximal aortas as previously described^30. […]
structure (smiles),measurement,setting,value
"NCc1ccccc1O [2-HOBA, 2-hydroxybenzylamine]",capacity of mouse HDL to reduce macrophage cholesterol stores,[1]; HDL from treated Ldlr−/− mice,increased; also recorded: enhanced capacity
same,efficiency of HDL at reducing cholesterol stores in Apoe−/− macrophage foam cells,[1]; versus 4-HOBA treated mice,1.7 fold
same,efficiency of HDL at reducing cholesterol stores in Apoe−/− macrophage foam cells,[1]; versus vehicle treated mice,2.2 fold
same,plasma levels of MDA,MDA,decreased
same,reduction of proximal aortic MDA adduct levels (immunofluorescence),MDA-protein adducts; compared to 4-HOBA,66.8%
same,reduction of proximal aortic MDA adduct levels (immunofluorescence),MDA-protein adducts; compared to vehicle alone,68.5%
same,"number of apoptotic cells, endothelial cell cultures",aortic endothelial cells,markedly decreased

# — patent US20230364032A1, “USE OF 2-HOBA TO TREAT ATHEROSCLEROSIS” (Vanderbilt University, priority 2020, published 2023)
